Test results from ChEMBL document CHEMBL1201861, “Genomics of Drug Sensitity in Cancer screening data, Wellcome Trust Sanger Institute”.

What was measured:
Assay in all cases: cells
[1] = tested on: Lu-65; assay type: functional, cell-based; settings: Homo sapiens;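 note: growth inhibition of Lu-65 cancer cells, read out by a cell viability assay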
Description: SANGER: Inhibition of human LU-65 cell growth in a cell viability assay.

[2] = tested on: SNB-75; assay type: functional, cell-based, Homo sapiens; settings: Homo sapiens, SNB-75;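 note: cell viability assay measuring growth inhibition of human SNB-75 cells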
Description: SANGER: Inhibition of human SNB75 cell growth in a cell viability assay.

[3] = tested on: MFE-280; assay type: functional, cell-based, Homo sapiens; settings: Homo sapiens, MFE-280;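 note: growth inhibition of MFE-280 cells, determined with a cell viability readout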
Description: SANGER: Inhibition of human MFE-280 cell growth in a cell viability assay.

[4] = tested on: DMS-114; assay type: functional, cell-based, Homo sapiens; settings: Homo sapiens, DMS-114
[5] = tested on: MHH-PREB-1; assay type: functional, cell-based; settings: Homo sapiens;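 note: cell viability assay measuring inhibition of proliferation of human MHH-PREB-1 cells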
Description: SANGER: Inhibition of human MHH-PREB-1 cell growth in a cell viability assay.

[6] = tested on: SCH; assay type: functional, cell-based, Homo sapiens; settings: Homo sapiens, SCH;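 note: growth inhibition of human SCH cells, read out in a cell viability assay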
Description: SANGER: Inhibition of human SCH cell growth in a cell viability assay.

[7] = tested on: ES7; assay type: functional, cell-based, Homo sapiens; settings: Homo sapiens, ES7;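 note: growth inhibition of cultured human ES7 cells, read out as cell viability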
Description: SANGER: Inhibition of human ES7 cell growth in a cell viability assay.

[8] = tested on: NCI-H226; assay type: functional, cell-based, Homo sapiens; settings: Homo sapiens, NCI-H226;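 note: cell viability read-out used to gauge growth inhibition of the cells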
Description: SANGER: Inhibition of human NCI-H226 cell growth in a cell viability assay.

[9] = tested on: KM12; assay type: functional, cell-based, Homo sapiens; settings: Homo sapiens, KM12;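 note: KM12 cell growth inhibition, read out with a cell viability assay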
Description: SANGER: Inhibition of human KM12 cell growth in a cell viability assay.

[10] = tested on: NCI-H1993; assay type: functional, cell-based, Homo sapiens; settings: Homo sapiens, NCI-H1993;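 note: growth inhibition of the cancer cell line, assessed with a cell viability assay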
Description: SANGER: Inhibition of human NCI-H1993 cell growth in a cell viability assay.

[11] = tested on: HT-1080; assay type: functional, cell-based, Homo sapiens; settings: Homo sapiens, HT-1080
Description: SANGER: Inhibition of human HT-1080 cell growth in a cell viability assay.

[12] = tested on: JEG-3; assay type: functional, cell-based, Homo sapiens; settings: Homo sapiens, JEG-3;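 note: growth inhibition of human JEG-3 cells, read out with a cell viability assay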
Description: SANGER: Inhibition of human JEG-3 cell growth in a cell viability assay.

[13] = tested on: NCI-H661; assay type: functional, cell-based, Homo sapiens; settings: Homo sapiens, NCI-H661;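 note: cell viability assay read-out, IC50 being the concentration that inhibits growth of the cells by half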
Description: SANGER: Inhibition of human NCI-H661 cell growth in a cell viability assay.

[14] = tested on: SW1990; assay type: functional, cell-based, Homo sapiens; settings: Homo sapiens, SW1990;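 note: cell growth inhibition determined with a viability assay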
Description: SANGER: Inhibition of human SW1990 cell growth in a cell viability assay.

[15] = tested on: KU812 cell line; assay type: functional, cell-based; settings: Homo sapiens;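 note: growth inhibition of KU812 cells, read out with a cell viability assay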
Description: SANGER: Inhibition of human KU812 cell growth in a cell viability assay.

[16] = tested on: KYSE-150 cell line; assay type: functional, cell-based, Homo sapiens; settings: Homo sapiens, KYSE-150;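 note: growth inhibition of human KYSE-150 cells, read out with a cell viability assay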
Description: SANGER: Inhibition of human KYSE-150 cell growth in a cell viability assay.

[17] = tested on: RCC10RGB; assay type: functional, cell-based, Homo sapiens; settings: Homo sapiens, RCC10RGB;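 note: growth inhibition of human RCC10RGB cells, read out by a cell viability assay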
Description: SANGER: Inhibition of human RCC10RGB cell growth in a cell viability assay.

[18] = tested on: VMRC-RCZ; assay type: functional, cell-based; settings: Homo sapiens;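 note: growth inhibition measured with a cell viability assay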
Description: SANGER: Inhibition of human VMRC-RCZ cell growth in a cell viability assay.

[19] = tested on: DSH1; assay type: functional, cell-based, Homo sapiens; settings: Homo sapiens, DSH1;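 note: growth inhibition of human DSH1 cells, measured with a cell viability readout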
Description: SANGER: Inhibition of human DSH1 cell growth in a cell viability assay.

[20] = tested on: L-428; assay type: functional, cell-based; settings: Homo sapiens
Description: SANGER: Inhibition of human L-428 cell growth in a cell viability assay.

[21] = tested on: SBC-5; assay type: functional, cell-based, Homo sapiens; settings: Homo sapiens, SBC-5;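 note: cell viability assay read-out, IC50 is the concentration that inhibits growth of the cells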
Description: SANGER: Inhibition of human SBC-5 cell growth in a cell viability assay.

[22] = tested on: LB2241-RCC; assay type: functional, cell-based, Homo sapiens; settings: Homo sapiens, LB2241-RCC;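 note: cell viability assay measuring how strongly the cultured human renal carcinoma line is prevented from growing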
Description: SANGER: Inhibition of human LB2241-RCC cell growth in a cell viability assay.

[23] = tested on: HuCCT-1; assay type: functional, cell-based, Homo sapiens, HuCCT1; settings: Homo sapiens, HuCCT-1;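 note: growth inhibition of HuCCT-1 cells, read out by a cell viability assay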
Description: SANGER: Inhibition of human HuCCT1 cell growth in a cell viability assay.

[24] = tested on: CHP-212; assay type: functional, cell-based, Homo sapiens; settings: Homo sapiens, CHP-212
Description: SANGER: Inhibition of human CHP-212 cell growth in a cell viability assay.

[25] = tested on: VM-CUB-1; assay type: functional, cell-based; settings: Homo sapiens;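 note: cell viability assay measuring growth inhibition of the human VM-CUB-1 cell line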
Description: SANGER: Inhibition of human VM-CUB-1 cell growth in a cell viability assay.

[26] = tested on: SK-MEL-2; assay type: functional, cell-based, Homo sapiens; settings: Homo sapiens, SK-MEL-2;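 note: growth inhibition of human SK-MEL-2 cells measured with a cell viability assay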
Description: SANGER: Inhibition of human SK-MEL-2 cell growth in a cell viability assay.

[27] = tested on: SJSA-1; assay type: functional, cell-based, Homo sapiens; settings: Homo sapiens, SJSA-1;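 note: growth inhibition of human SJSA-1 cells, read out through a cell viability measurement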
Description: SANGER: Inhibition of human SJSA-1 cell growth in a cell viability assay.

[28] = tested on: no-10; assay type: functional, cell-based, Homo sapiens; settings: Homo sapiens;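 note: growth inhibition of no-10 cells, read out with a cell viability assay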
Description: SANGER: Inhibition of human no-10 cell growth in a cell viability assay.

[29] = tested on: M14; assay type: functional, cell-based, Homo sapiens; settings: Homo sapiens, M14;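 note: growth inhibition of M14 cells, read out with a cell viability assay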
Description: SANGER: Inhibition of human M14 cell growth in a cell viability assay.

[30] = tested on: SNU1; assay type: functional, cell-based; settings: Homo sapiens;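 note: growth inhibition of human NCI-SNU-1 cells, measured with a cell viability assay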
Description: SANGER: Inhibition of human NCI-SNU-1 cell growth in a cell viability assay.

[31] = tested on: NUGC-3; assay type: functional, cell-based, Homo sapiens; settings: Homo sapiens, NUGC-3;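 note: growth inhibition of human NUGC-3 cells, read out with a cell viability assay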
Description: SANGER: Inhibition of human NUGC-3 cell growth in a cell viability assay.

[32] = tested on: MDA-MB-157; assay type: functional, cell-based, Homo sapiens; settings: Homo sapiens, MDA-MB-157
Description: SANGER: Inhibition of human MDA-MB-157 cell growth in a cell viability assay.

[33] = tested on: NCI-H82; assay type: functional, cell-based; settings: Homo sapiens;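 note: growth inhibition of NCI-H82 cells, measured with a cell viability readout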
Description: SANGER: Inhibition of human NCI-H82 cell growth in a cell viability assay.

[34] = tested on: TGW; assay type: functional, cell-based; settings: Homo sapiens;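 note: growth inhibition of human TGW cells, read out with a cell viability assay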
Description: SANGER: Inhibition of human TGW cell growth in a cell viability assay.

[35] = tested on: SW13; assay type: functional, cell-based, Homo sapiens; settings: Homo sapiens, SW13;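 note: IC50 is inhibition of SW13 cell growth, read out with a cell viability assay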
Description: SANGER: Inhibition of human SW13 cell growth in a cell viability assay.

[36] = tested on: KALS-1; assay type: functional, cell-based, Homo sapiens; settings: Homo sapiens, KALS-1;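 note: growth inhibition of KALS-1 cells, determined with a cell viability assay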
Description: SANGER: Inhibition of human KALS-1 cell growth in a cell viability assay.

[37] = tested on: CAL-54; assay type: functional, cell-based, Homo sapiens; settings: Homo sapiens, CAL-54;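 note: growth inhibition of CAL-54 cells, read out by a viability measurement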
Description: SANGER: Inhibition of human CAL-54 cell growth in a cell viability assay.

[38] = tested on: NCI-H1623; assay type: functional, cell-based, Homo sapiens; settings: Homo sapiens, NCI-H1623;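 note: cell viability assay used as the read-out for growth inhibition of NCI-H1623 cells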
Description: SANGER: Inhibition of human NCI-H1623 cell growth in a cell viability assay.

[39] = tested on: TCC-SUP; assay type: functional, cell-based, Homo sapiens; settings: Homo sapiens, TCC-SUP;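 note: growth inhibition of TCC-SUP cells, read out with a cell viability assay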
Description: SANGER: Inhibition of human TCCSUP cell growth in a cell viability assay.

[40] = tested on: BV-173; assay type: functional, cell-based; settings: Homo sapiens
Description: SANGER: Inhibition of human BV-173 cell growth in a cell viability assay.

[41] = tested on: ES4; assay type: functional, cell-based, Homo sapiens; settings: Homo sapiens, ES4;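 note: growth inhibition of human ES4 cells, read out by a cell viability assay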
Description: SANGER: Inhibition of human ES4 cell growth in a cell viability assay.

[42] = tested on: BFTC-909; assay type: functional, cell-based, Homo sapiens; settings: Homo sapiens, BFTC-909
Description: SANGER: Inhibition of human BFTC-909 cell growth in a cell viability assay.

[43] = tested on: OVCAR-3; assay type: functional, cell-based, Homo sapiens; settings: Homo sapiens, OVCAR-3;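 note: growth inhibition of human OVCAR-3 cells, determined by a cell viability assay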
Description: SANGER: Inhibition of human OVCAR-3 cell growth in a cell viability assay.

[44] = tested on: SW1573; assay type: functional, cell-based, Homo sapiens; settings: Homo sapiens, SW1573;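 note: growth inhibition of SW1573 cells, read out with a cell viability assay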
Description: SANGER: Inhibition of human SW1573 cell growth in a cell viability assay.

[45] = tested on: LB996-RCC; assay type: functional, cell-based; settings: Homo sapiens
Description: SANGER: Inhibition of human LB996-RCC cell growth in a cell viability assay.

[46] = tested on: HN; assay type: functional, cell-based, Homo sapiens; settings: Homo sapiens, HN
Description: SANGER: Inhibition of human HN cell growth in a cell viability assay.

[47] = tested on: no-11; assay type: functional, cell-based, Homo sapiens; settings: Homo sapiens;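 note: growth inhibition of human NO-11 cells, read out with a cell viability assay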
Description: SANGER: Inhibition of human no-11 cell growth in a cell viability assay.

[48] = tested on: CHL-1; assay type: functional, cell-based, Homo sapiens; settings: Homo sapiens, CHL-1;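 note: cell growth inhibition, read out with a cell viability assay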
Description: SANGER: Inhibition of human CHL-1 cell growth in a cell viability assay.

[49] = tested on: LOX IMVI; assay type: functional, cell-based; settings: Homo sapiens
Description: SANGER: Inhibition of human LOXIMVI cell growth in a cell viability assay.

[50] = tested on: C32; assay type: functional, cell-based, Homo sapiens; settings: Homo sapiens, C32;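 note: cell viability assay, with IC50 reflecting inhibition of C32 cell growth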
Description: SANGER: Inhibition of human C32 cell growth in a cell viability assay.

[51] = tested on: HCT-116; assay type: functional, cell-based, Homo sapiens; settings: Homo sapiens, HCT-116
Description: SANGER: Inhibition of human HCT-116 cell growth in a cell viability assay.

[52] = tested on: MZ2-MEL; assay type: functional, cell-based, Homo sapiens; settings: Homo sapiens, MZ2-MEL;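 note: growth inhibition of MZ2-MEL cells read out with a cell viability assay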
Description: SANGER: Inhibition of human MZ2-MEL cell growth in a cell viability assay.

In the case of `CCC1=C[C@@H]2CN(C1)Cc1c([nH]c3ccccc13)[C@@](C(=O)OC)(c1cc3c(cc1OC)N(C)[C@H]1[C@@](O)(C(=O)OC)[C@H](OC(C)=O)[C@]4(CC)C=CCN5CC[C@]31[C@@H]54)C2` [VINORELBINE], the IC50 [1] is reported as 24.5 nM, the IC50 [2] is reported as 12.5 nM and the IC50 [3] is reported as greater than 64 nM. For the same compound, the IC50 [4] was greater than 64 nM, the IC50 [5] was 6.88 nM and the IC50 [6] was greater than 64 nM. For the same compound, the IC50 [7] was 3.86 nM, the IC50 [8] was 25 nM and the IC50 [9] was 2.61 nM. It also gave an IC50 [10] greater than 64 nM, an IC50 [11] of 2.49 nM and an IC50 [12] of 14.1 nM. The IC50 [13] was 20.4 nM, the IC50 [14] was greater than 64 nM and the IC50 [15] was 9.3 nM. The IC50 [16] was 3.04 nM, the IC50 [17] was greater than 64 nM and the IC50 [18] was 18.8 nM. It also gave an IC50 [19] of 4.87 nM, an IC50 [20] greater than 64 nM and an IC50 [21] of 2.08 nM. It also gave an IC50 [22] greater than 64 nM, an IC50 [23] of 2.78 nM and an IC50 [24] of 24.6 nM. For the same compound, the IC50 [25] was 19.1 nM, the IC50 [26] was 7.18 nM and the IC50 [27] was 12.6 nM. It also gave an IC50 [28] of 45.6 nM, an IC50 [29] of 21.1 nM and an IC50 [30] of 32.7 nM. For the same compound, the IC50 [31] was 5.99 nM, the IC50 [32] was greater than 64 nM and the IC50 [33] was 60 nM. For the same compound, the IC50 [34] was greater than 64 nM, the IC50 [35] was 4.72 nM and the IC50 [36] was 3.9 nM. The IC50 [37] was greater than 64 nM, the IC50 [38] was 28.5 nM and the IC50 [39] was 27.1 nM. The IC50 [40] was 30.4 nM, the IC50 [41] was greater than 64 nM and the IC50 [42] was 10.8 nM. It also gave an IC50 [43] of 6.21 nM, an IC50 [44] of 34 nM and an IC50 [45] greater than 64 nM. It also gave an IC50 [46] greater than 64 nM, an IC50 [47] greater than 64 nM and an IC50 [48] of 4.6 nM. For the same compound, the IC50 [49] was greater than 64 nM, the IC50 [50] was greater than 64 nM and the IC50 [51] was 3.37 nM. The IC50 [52] was 43 nM.
